The subject of data set [1] is advanced NSCLC. In words: GALAXY-1 Phase 2b trial, ganetespib plus docetaxel vs. docetaxel alone: OS and PFS. In kind it is in vivo, human. The source says: The GALAXY-1 trial was initiated in patients with advanced NSCLC who received one prior treatment for advanced disease, i.e., a second-line treatment setting. GALAXY-1 compared treatment with docetaxel (D) alone, which is approved for second-line treatment, vs. treatment with ganetespib (G) plus docetaxel (D). The aims of the study were to:
The key GALAXY-1 patient populations comprised populations with (1) elevated LDH (eLDH), (2) KRAS mutations (mKRAS) and/or (3) time since diagnosis of cancer of 6 months or greater (chemosensitive). A rationale for selecting a population with elevated LDH is that LDH-A is a marker of HIF-1α activity, and HIF-1α is a Hsp90 client, and drives invasiveness and metastasis. A rationale for selecting a population with KRAS mutation is that RAS signaling kinases are Hsp90 clients, and there is a medical need. A rationale for selecting a population in which the time since diagnosis of cancer is 6 months or greater (chemosensitive population) is that key cell cycle checkpoint/DNA repair kinases are Hsp90 clients. Additionally, key mitochondrial apoptosis pathway proteins are Hsp90 clients.
(§1) Patients in both arms of GALAXY-1 received a standard regimen of docetaxel 75 mg/m^2 on day 1 of a 21-day treatment cycle. Patients in the combination arm also received ganetespib 150 mg/m^2 on days 1 and 15. Treatment continued until disease progression or until treatment intolerance. To ensure balance of prognostic factors between the two arms, patients were stratified by ECOG performance status (these scales and criteria are used by doctors and researchers to assess how a patient's disease is progressing, assess how the disease affects the daily living abilities of the patient, and determine appropriate treatment and prognosis), baseline lactate dehydrogenase (LDH) level, smoking status, and time since diagnosis of advanced disease.
To ensure the specified number of eLDH and mKRAS patients were included, a total of 385 patients were enrolled in GALAXY-1.
Hazard ratios were calculated with Cox proportional hazards model. • Unadjusted: univariate analysis • Adjusted: pre-specified analysis adjusting for multiple prognostic variables such as gender, smoking status, LDH, ECOG performance status, interval since diagnosis of advanced disease, age, total baseline target lesion size, and geographic region.
This was a randomized, multicenter, parallel group study. Patients in both arms were treated with docetaxel per standard practice until disease progression or intolerability. Patients on both arms were treated until intolerability or disease progression per RECIST.
Key eligibility criteria were Stage IIIB/IV NSCLC; ECOG 0,1; one prior therapy in advanced setting; measurable disease by RECIST; documented disease progression; clinically stable CNS metastases; available tumor tissues; and adequate organ function.
Patients were randomized in a 1:1 ratio to receive either ganetespib in combination with docetaxel or docetaxel alone.
The experimental arm was dosed with ganetespib in combination with docetaxel 75 mg/m^2. Ganetespib (150 mg/m^2) and docetaxel (75 mg/m^2) were administered on Day 1 of a 3-week cycle. Ganetespib (150 mg/m^2) was administered again on Day 15 of each 3-week cycle. Docetaxel 75 mg/m^2 was administered on Day 1 of a 3-week treatment cycle. 385 patients were enrolled. A total of 381 patients received at least one dose of study drug.

The test system of data set [2] is advanced solid tumor malignancies. Kind of data set: Phase 1 dose-escalation, pharmacokinetic study of ganetespib in combination with docetaxel. In kind it is in vivo, human. The following applies: ganetespib schedule Days 1 and 15 of each cycle, preliminary data. As to the method:
Patients were dosed once-weekly. Dosing was with 150 mg/m^2 ganetespib (days 1 and 15)+60 mg/m^2 docetaxel (Day 1). Initial ganetespib dosing regimen was Days 1 and 8; however, Day 8 was later changed to Day 15. Day 4 dosing with single agent ganetespib was added. The dose cycle was 2 weeks+1 week rest. The primary objective of this study was to determine the recommended doses for the combination of ganetespib and docetaxel in patients with advanced solid tumor malignancies. Secondary objectives were to define the DLTs associated with ganetespib in combination with docetaxel dosing, assess possible PK effects, and evaluate the safety, tolerability, and preliminary evidence of anti-tumor activity of the combination. A total of 27 patients were enrolled.

Data set [3] can be described thus: GALAXY-1 safety profile (adverse events) in adenocarcinoma patients. As to the method: as §1
The test system of data set [4] is solid and hematologic cancers. In words: Preclinical studies of anti-cancer activity. The following applies: monotherapy and in combination with widely used anti-cancer agents.
Data set [5] in a line: Safety of ganetespib across clinical trials (over 1,000 patients). In kind it is in vivo, human. The source says: Ganetespib has been evaluated in a broad range of cancer clinical trials including the GALAXY NSCLC program (GALAXY-1 and GALAXY-2) in combination with docetaxel chemotherapy, and as monotherapy in certain genetically-defined targeted patient populations. A favorable safety profile has been consistently observed across clinical trials, involving over 1,000 patients treated with ganetespib to date. […] In the clinical trials conducted to date, ganetespib has shown promising activity both in combination with chemotherapy and as a monotherapy.

Where [6] appears, read: Adenocarcinoma population, N = 253.
Where [7] appears, read: Chemosensitive population, N = 177.

With `CC(=O)O[C@@]12CO[C@@H]1C[C@H](O)[C@@]1(C)C(=O)[C@H](O)C3=C(C)[C@@H](OC(=O)[C@H](O)[C@@H](NC(=O)OC(C)(C)C)c4ccccc4)C[C@@](O)([C@@H](OC(=O)c4ccccc4)[C@H]21)C3(C)C` [D, docetaxel], in data set [1] (setting [6]), the “Median OS” value stood at 8.4 months and the “Median PFS” value is on record as 3.2 months. Further, in data set [1] (setting [7]), the “Median OS” value was 7.4 months and the “Median PFS” value is on record as 3.4 months. In addition, in data set [1] (eLDH population, N = 87), the “Median OS” value is recorded as 5.1 months and the “Median PFS” value is recorded as 2.7 months. Besides, in data set [1] (mKRAS population, N = 89), the “Median OS” value amounted to 6.4 months and the “Median PFS” value came to 3.0 months. Further, the “recommended Phase 2 dose” value in data set [2] is 75 mg/m^2. The “proportion of patients with AEs leading to death” value in data set [3] (adenocarcinoma patients) worked out at 12%. For the same compound, in data set [3] (human, in vivo), the “diarrhea, all grades” value amounted to 16%; the “fatigue, all grades” value was determined as 24%; the “grade 3 or 4 anemia” value is 2%; the “grade 3 or 4 fatigue” value is on record as 4%. Further, in data set [3] (human, in vivo), the “grade 3 or 4 febrile neutropenia” value is given as 4%; the “grade 3 or 4 neutropenia” value was found to be 42%; the “incidence of grade 3 or 4 diarrhea” value is on record as 0%; the “neutropenia, all grades” value came out at 45%. Besides, the “proportion of patients with AEs leading to treatment discontinuation” value in data set [3] (human, in vivo) came to 6%.

On to `CC(C)c1cc(-c2nnc(O)n2-c2ccc3c(ccn3C)c2)c(O)cc1O` [Ganetespib], for which the “recommended Phase 2 dose” value in data set [2] was 150 mg/m^2. Moreover, the “anti-cancer activity in preclinical studies” value in data set [4] was “potent anti-cancer activity”. Also, the “most common adverse event” value in data set [5] (clinical trials) was “transient, mild or moderate diarrhea”. In data set [5] (over 1,000 patients treated), the “toxicities observed across clinical trials” value was “not shown the serious liver or common ocular toxicities”.

The record behind these values is US20150374672A1, “PRE-SELECTION OF SUBJECTS FOR THERAPEUTIC TREATMENT WITH AN HSP90 INHIBITORY COMPOUND BASED ON CHEMOSENSITIVE STATUS” (Synta Pharmaceuticals Corp., priority 2014, published 2015).
